From the NIST ThermoML archive (doi:10.1016/j.fluid.2010.08.027)
Numbers after ± are expanded uncertainties.

Conditions: 101.33 kPa, Liquid, Vibrating tube method

Cn1cc[n+](CCO)c1.O=S(=O)([O-])C(F)(F)F
mass density (303.15 K): 1444 ± 2 kg/m3
mass density (313.15 K): 1436.1 ± 2 kg/m3
mass density (323.15 K): 1428 ± 2 kg/m3
mass density (333.15 K): 1420.5 ± 1.9 kg/m3
mass density (343.15 K): 1410.8 ± 1.9 kg/m3
mass density (353.15 K): 1400.5 ± 1.9 kg/m3

Cn1cc[n+](CCO)c1.O=S(=O)([N-]S(=O)(=O)C(F)(F)F)C(F)(F)F
mass density (303.15 K): 1589.4 ± 2.3 kg/m3
mass density (308.15 K): 1584.2 ± 2.3 kg/m3
mass density (313.15 K): 1578.9 ± 2.3 kg/m3
mass density (318.15 K): 1574.2 ± 2.3 kg/m3
mass density (323.15 K): 1568.7 ± 2.3 kg/m3
mass density (328.15 K): 1563.7 ± 2.3 kg/m3
mass density (333.15 K): 1558.7 ± 2.3 kg/m3
mass density (338.15 K): 1553.7 ± 2.2 kg/m3
mass density (343.15 K): 1548.8 ± 2.2 kg/m3
mass density (348.15 K): 1544 ± 2.2 kg/m3
mass density (353.15 K): 1538.6 ± 2.2 kg/m3

Cn1cc[n+](CCO)c1.F[P-](F)(F)(F)(F)F [3-(2-hydroxyethyl)-1-methylimidazolium hexafluorophosphate]
mass density (303.15 K): 1555.6 ± 2.2 kg/m3
mass density (308.15 K): 1550.8 ± 2.2 kg/m3
mass density (313.15 K): 1546 ± 2.2 kg/m3
mass density (318.15 K): 1541.1 ± 2.2 kg/m3
mass density (323.15 K): 1536.4 ± 2.2 kg/m3
mass density (328.15 K): 1531.8 ± 2.2 kg/m3
mass density (333.15 K): 1527.2 ± 2.2 kg/m3
mass density (338.15 K): 1522.6 ± 2.2 kg/m3
mass density (343.15 K): 1518.2 ± 2.2 kg/m3
mass density (348.15 K): 1513.6 ± 2.2 kg/m3
mass density (353.15 K): 1508.7 ± 2.1 kg/m3
